Measured values reported in US8119695B2, “Compounds and methods for treating breast cancer and other diseases” (City of Hope, priority 2003, dated 2012).
Blank lines part the entries; values can stand above or below the compound they belong to.

Assays:
Type in all cases: cell-based
ERRs = experiment: repression / antagonism of ERRs; details: result in words
MH100x4 = MH100x4 luciferase reporter without receptor; details: Table 3, dose 2.5 (unit not given); for Reporter Activity: None 0.57; for Fold Activation: None 1
Text: (§1) MH100x4 is a luciferase reporter with four copies of a GAL4 […] response element. GAL-L refers to the ligand-binding domain of the indicated receptor fused to the C-terminus of the GAL4 DNA binding domain.

ERRγ (GAL-ERRg) = experiment: MH100x4 luciferase reporter with GAL-ERRg; design: Reporter Activity: unit not given here; details: for Fold Activation / Reporter Activity: Table 3, dose 2.5 (unit not given); for Fold Activation: None 1; for Reporter Activity: None 2.2
Text: as §1

ERRβ (GAL-L-ERRb) = molecular target: T1, ERRβ (GAL-L-ERRb) (Homo sapiens, UniProt O95718); experiment: MH100x4 luciferase reporter with GAL-L-ERRb; design: Reporter Activity: unit not given here
T1 construct: expressed in transfected cells
T1 sequence (O95718 208-432 limits assumed): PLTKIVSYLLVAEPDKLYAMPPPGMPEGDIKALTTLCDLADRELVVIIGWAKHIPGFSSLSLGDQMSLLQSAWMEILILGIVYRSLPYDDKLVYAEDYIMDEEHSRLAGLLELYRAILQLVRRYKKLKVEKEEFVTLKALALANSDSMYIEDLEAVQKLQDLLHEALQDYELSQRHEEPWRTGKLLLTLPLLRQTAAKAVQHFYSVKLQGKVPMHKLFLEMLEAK
Text: as §1

ERRα (GAL-ERRa) = experiment: MH100x4 luciferase reporter with GAL-ERRa; design: Reporter Activity: unit not given here
Text: as §1

ERβ (ERb) = molecular target: T2, ERβ (ERb) (Homo sapiens, UniProt Q92731); experiment: ERE-TK-luc reporter with ERb, E2 100 nM; details: Table 6, None 2.88
T2 construct: expressed in transfected cells
T2 sequence (Q92731 whole entry, species assumed): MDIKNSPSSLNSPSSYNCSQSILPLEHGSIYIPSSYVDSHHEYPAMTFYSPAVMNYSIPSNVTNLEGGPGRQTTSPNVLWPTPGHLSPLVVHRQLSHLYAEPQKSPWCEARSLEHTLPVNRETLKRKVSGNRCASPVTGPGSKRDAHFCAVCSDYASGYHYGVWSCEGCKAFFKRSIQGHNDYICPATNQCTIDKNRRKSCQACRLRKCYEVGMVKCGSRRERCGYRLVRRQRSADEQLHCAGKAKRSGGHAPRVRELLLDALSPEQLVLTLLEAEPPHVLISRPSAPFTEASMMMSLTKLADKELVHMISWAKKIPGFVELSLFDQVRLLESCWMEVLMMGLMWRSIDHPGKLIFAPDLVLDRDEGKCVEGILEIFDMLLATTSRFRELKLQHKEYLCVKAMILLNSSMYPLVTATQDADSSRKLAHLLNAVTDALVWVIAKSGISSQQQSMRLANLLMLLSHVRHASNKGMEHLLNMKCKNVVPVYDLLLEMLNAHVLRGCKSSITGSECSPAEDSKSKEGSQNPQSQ

ERα (ERa) = molecular target: T3, ERα (ERa) (Homo sapiens, UniProt P03372); experiment: ERE-TK-luc reporter with ERa, E2 100 nM; details: Table 6, None 3.43
T3 construct: expressed in transfected cells
T3 sequence (P03372 1-595): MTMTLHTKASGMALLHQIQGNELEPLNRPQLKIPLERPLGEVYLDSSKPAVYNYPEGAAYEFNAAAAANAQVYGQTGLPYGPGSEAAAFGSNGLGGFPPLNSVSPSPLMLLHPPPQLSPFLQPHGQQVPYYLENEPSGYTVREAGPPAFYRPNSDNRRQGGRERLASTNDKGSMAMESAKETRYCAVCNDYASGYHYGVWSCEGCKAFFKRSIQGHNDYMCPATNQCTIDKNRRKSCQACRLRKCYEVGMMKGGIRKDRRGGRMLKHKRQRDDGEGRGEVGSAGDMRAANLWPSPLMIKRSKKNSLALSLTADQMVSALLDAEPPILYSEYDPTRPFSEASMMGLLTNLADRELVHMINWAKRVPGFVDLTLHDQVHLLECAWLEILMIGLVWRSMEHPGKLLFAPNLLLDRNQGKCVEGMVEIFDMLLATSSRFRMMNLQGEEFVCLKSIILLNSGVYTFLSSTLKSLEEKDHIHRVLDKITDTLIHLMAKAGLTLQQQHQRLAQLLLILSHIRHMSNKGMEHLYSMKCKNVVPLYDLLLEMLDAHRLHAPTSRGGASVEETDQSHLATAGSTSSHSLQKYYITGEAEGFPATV

ERE-TK-luc = ERE-TK-luc reporter without receptor, E2 100 nM; details: Table 6; for Fold Activation: None 1.00; for Reporter Activity: None 1.44
[1] = Table 3, dose 2.5 (unit not given), None 1
[2] = Table 3, dose 2.5 (unit not given), None 2.38
[3] = Table 3, dose 2.5 (unit not given), None 8.18
[4] = E2 100 nM + DY 40, head 0 μM (1st)
[5] = E2 100 nM + DY 40, head 0 μM (2nd)

Structure (SMILES): CCC(=C(c1ccc(O)cc1)c1ccc(O)cc1)c1ccccc1 [DY25, 1,1-Bis(4-hydroxyphenyl)-2-phenylbut-1-ene]
repression of ERRs (ERRs): does not repress ERRs

Structure (SMILES): CCCC(=C(c1ccc(O)cc1)c1ccc(O)cc1)c1ccccc1 [DY37]
repression of ERRs (ERRs): does not repress ERRs

Reporter Activity (MH100x4): 0.56
Fold Activation (MH100x4): 0.98
Fold Activation (ERRγ (GAL-ERRg)): 0.68
Reporter Activity (ERRγ (GAL-ERRg)): 1.5
Fold Activation (ERRβ (GAL-L-ERRb); [1]): 0.86
Reporter Activity (ERRβ (GAL-L-ERRb); [2]): 2.04
Fold Activation (ERRα (GAL-ERRa); [1]): 1.03
Reporter Activity (ERRα (GAL-ERRa); [3]): 8.46
Structure (SMILES): Oc1ccc(C(=C(CCCl)c2ccccc2)c2ccc(O)cc2)cc1 [DY30]
repression of ERRs (ERRs): does not repress ERRs

Reporter Activity (MH100x4): 0.4
Fold Activation (MH100x4): 0.7
Fold Activation (ERRγ (GAL-ERRg)): 0.53
Reporter Activity (ERRγ (GAL-ERRg)): 1.16
Fold Activation (ERRβ (GAL-L-ERRb); [1]): 0.74
Reporter Activity (ERRβ (GAL-L-ERRb); [2]): 1.75
Fold Activation (ERRα (GAL-ERRa); [1]): 1.06
Reporter Activity (ERRα (GAL-ERRa); [3]): 8.71
Structure (SMILES): Oc1ccc(C(=C(CCCCl)c2ccccc2)c2ccc(O)cc2)cc1 [DY31]
repression of ERRs (ERRs): does not repress ERRs

Structure (SMILES): CC(C)C(=C(c1ccc(O)cc1)c1ccc(O)cc1)c1ccccc1 [DY34, 1,1-Bis(4-hydroxyphenyl)-2-phenylbut-3-methyl-1-ene]
repression of ERRs (ERRs): does not repress ERRs
Fold Activation (ERRγ (GAL-ERRg)): 0.61
Reporter Activity (ERRγ (GAL-ERRg)): 1.35
Fold Activation (ERRβ (GAL-L-ERRb); [1]): 0.48
Reporter Activity (ERRβ (GAL-L-ERRb); [2]): 1.15
Fold Activation (ERRα (GAL-ERRa); [1]): 1.01
Reporter Activity (ERRα (GAL-ERRa); [3]): 8.24

Structure (SMILES): CC(=O)Oc1ccc(/C(=C(/c2ccccc2)C(C)C)c2ccc(OCCN(C)C)cc2)cc1 [DY40, (E,Z)-4-{1-[4-(2-dimethylamino-ethoxy)-phenyl]-3-methyl-2-phenyl-but-1-enyl}-phenyl acetate]
Reporter Activity (ERβ (ERb); E2 100 nM + DY 40 0.01 μM): 3.19
Reporter Activity (ERβ (ERb); E2 100 nM + DY 40 0.03 μM): 2.36
Reporter Activity (ERβ (ERb); E2 100 nM + DY 40 0.1 μM): 1.58
Reporter Activity (ERβ (ERb); E2 100 nM + DY 40 0.3 μM): 1.09
Reporter Activity (ERβ (ERb); [4]): 9.37
Reporter Activity (ERβ (ERb); [5]): 6.03
Reporter Activity (ERα (ERa); E2 100 nM + DY 40 0.01 μM): 5.07
Reporter Activity (ERα (ERa); E2 100 nM + DY 40 0.03 μM): 2.42
Reporter Activity (ERα (ERa); E2 100 nM + DY 40 0.1 μM): 1.97
Reporter Activity (ERα (ERa); E2 100 nM + DY 40 0.3 μM): 1.32
Reporter Activity (ERα (ERa); [4]): 13.55
Reporter Activity (ERα (ERa); [5]): 8.57
inhibition of the activity of ERRγ (ERRγ (GAL-ERRg)): inhibit the activity
potency antagonizing ERRγ relative to 4-hydroxytamoxifen (ERRγ (GAL-ERRg)): about 30 fold
Fold Activation (ERRβ (GAL-L-ERRb); Table 4, DY40 dose head 0 (1st of 3), None 1.2): 1.33
Reporter Activity (ERRβ (GAL-L-ERRb); Table 4, DY40 dose head 0 (1st of 3), None 8.67): 9.61
Fold Activation (ERRβ (GAL-L-ERRb); Table 4, DY40 dose head 0 (2nd of 3), None 1.2): 0.92
Reporter Activity (ERRβ (GAL-L-ERRb); Table 4, DY40 dose head 0 (2nd of 3), None 8.67): 6.61
Fold Activation (ERRβ (GAL-L-ERRb); Table 4, DY40 dose head 0 (3rd of 3), None 1.2): 0.7
Reporter Activity (ERRβ (GAL-L-ERRb); Table 4, DY40 dose head 0 (3rd of 3), None 8.67): 5.07
Fold Activation (ERRβ (GAL-L-ERRb); Table 4, dose 0.1 (unit not given), None 1/1.2): 0.2
Reporter Activity (ERRβ (GAL-L-ERRb); Table 4, dose 0.1 (unit not given), None 7.21/8.67): 1.4
Fold Activation (ERRβ (GAL-L-ERRb); Table 4, dose 0.3 (unit not given), None 1/1.2): 0.1
Reporter Activity (ERRβ (GAL-L-ERRb); Table 4, dose 0.3 (unit not given), None 7.21/8.67): 0.73
Fold Activation (ERRβ (GAL-L-ERRb); Table 4, dose 1 (unit not given), None 1/1.2): 0.08
Reporter Activity (ERRβ (GAL-L-ERRb); Table 4, dose 1 (unit not given), None 7.21/8.67): 0.59
potency antagonizing ERRβ relative to 4-hydroxytamoxifen (ERRβ (GAL-L-ERRb); greater than 4-hydroxytamoxifen): about 30 fold
inhibition of the activity of ERRβ (ERRβ (GAL-L-ERRb); result in words): inhibit the activity
Fold Activation (ERE-TK-luc; E2 100 nM + DY 40 0.01 μM): 1.03
Reporter Activity (ERE-TK-luc; E2 100 nM + DY 40 0.01 μM): 1.48
Fold Activation (ERE-TK-luc; E2 100 nM + DY 40 0.03 μM): 0.85
Reporter Activity (ERE-TK-luc; E2 100 nM + DY 40 0.03 μM): 1.22
Fold Activation (ERE-TK-luc; E2 100 nM + DY 40 0.1 μM): 0.69
Reporter Activity (ERE-TK-luc; E2 100 nM + DY 40 0.1 μM): 0.99
Fold Activation (ERE-TK-luc; E2 100 nM + DY 40 0.3 μM): 0.47
Reporter Activity (ERE-TK-luc; E2 100 nM + DY 40 0.3 μM): 0.67
Fold Activation (ERE-TK-luc; [4]): 0.90
Reporter Activity (ERE-TK-luc; [4]): 1.29
Fold Activation (ERE-TK-luc; [5]): 0.81
Reporter Activity (ERE-TK-luc; [5]): 1.17
Fold Activation (ERRα (GAL-ERRa); Table 4, DY40 dose head 0 (1st of 3), None 1.23): 1.24
Reporter Activity (ERRα (GAL-ERRa); Table 4, DY40 dose head 0 (1st of 3), None 34.05): 34.34
Fold Activation (ERRα (GAL-ERRa); Table 4, DY40 dose head 0 (2nd of 3), None 1.23): 1.17
Reporter Activity (ERRα (GAL-ERRa); Table 4, DY40 dose head 0 (2nd of 3), None 34.05): 32.4
Fold Activation (ERRα (GAL-ERRa); Table 4, DY40 dose head 0 (3rd of 3), None 1.23): 1.23
Reporter Activity (ERRα (GAL-ERRa); Table 4, DY40 dose head 0 (3rd of 3), None 34.05): 34
Fold Activation (ERRα (GAL-ERRa); Table 4, dose 0.1 (unit not given), None 1/1.23): 1.3
Reporter Activity (ERRα (GAL-ERRa); Table 4, dose 0.1 (unit not given), None 27.7/34.05): 37
Fold Activation (ERRα (GAL-ERRa); Table 4, dose 0.3 (unit not given), None 1/1.23): 1.47
Reporter Activity (ERRα (GAL-ERRa); Table 4, dose 0.3 (unit not given), None 27.7/34.05): 40.8
Fold Activation (ERRα (GAL-ERRa); Table 4, dose 1 (unit not given), None 1/1.23): 0.98
Reporter Activity (ERRα (GAL-ERRa); Table 4, dose 1 (unit not given), None 27.7/34.05): 27.3
